| SMILES | melting point [°C] |
| --- | --- |
| Cc1cc(F)ccc1-c1ccc(S(=O)(=O)N2c3ccccc3CC2C(=O)NCCOc2ccc(C(=O)OC(C)(C)C)cc2)cc1 (stereo not given) | 84 |
| COc1cc2c(cc1OC)C(=O)C(CN1CCC3(CC1)C(=O)NCN3c1ccccc1)C2 (stereo not given) | 174 to 177 |
| O=C(O)c1cn([C@@H]2C[C@@H]2F)c2c(F)c(N3C[C@@H]4CCCN[C@@H]4C3)c(F)cc2c1=O | 271 to 273 |
| CCSc1c(C=NOCc2ccccc2)c(=O)n(C)c(=O)n1C | 76 |
| Sc1ccc(-c2ccc(-c3ccc(S)c(S)c3)cc2)cc1S | 171 to 172 |
| O=C1NC2(CCc3ccccc32)c2ccccc21 (stereo not given) | 205 to 206 |
| O=C(C1CCN(S(=O)(=O)c2ccc(Br)cc2)CC1)N1CCN(c2ccncn2)CC1 | 171 to 174 |
| O=C(O)c1cc(O)c(C(=O)c2ccccc2)c([N+](=O)[O-])c1 | 264 to 266 |
| Clc1ccc2c(c1)C(c1ccccc1)Nc1nccn1-2 (stereo not given) | 239 to 241 |
| COc1nc(O)cc(=O)n1C | 170 to 171 |
| CCOc1cc2c(cc1OCC)C(C(C#N)SCCO)=NCC2 (stereo not given) | 94 to 96 |
| OCc1ncc(O)c2c1[nH]c1ccccc12 | 148 |
| O=Cc1cc([N+](=O)[O-])ccc1OCCCc1ccccc1 | 72 to 73 |
| O=C1CC2(CCCCC2)CC(=O)N1c1ccncc1 | 213 to 215 |
| CCOC(=O)NNC(=O)Nc1ccc(C(F)(F)F)cc1 | 205 to 208 |
| O=Cc1c(Cl)nc(-c2ccccc2)n1Cc1ccccc1 | 117 to 118 |
| N=C(NC=Cc1ccc([N+](=O)[O-])cc1)c1cccc(N)c1 | 146 to 148 |
| COC(=O)C(C)N(C(=O)CS)c1c(C)cccc1C (stereo not given) | 62.5 to 63 |
| CN(C)C(=O)Cc1cn(Cc2ccccc2)c2ccc(I)cc12 | 167 to 168 |
| Nc1cc(C2COCCO2)ccn1 (stereo not given) | 123 to 126 |

| SMILES | melting point [°C] |
| --- | --- |
| O=C(O)CCc1cn(Cc2ccc(OCc3csc(-c4ccccn4)n3)cc2)cc1-c1ccccc1 | 117 to 118 |
| C=CCC1(C)OC(=S)Nc2ccc(-c3cccc(Cl)c3)cc21 (stereo not given) | 150 to 151 |
| Cc1nc(N)c2nc(C)n(CCOC/C=C/c3ccccc3)c2c1C | 144 to 145 |
| COC(=O)Cc1cc(N=O)c2[nH]ccc2c1 | 110 to 111 |
| O=C(NC(CCc1ccccc1)c1nnc(NS(=O)(=O)c2ccccc2)o1)c1cccc2[nH]c(-c3ccncc3)nc12 (stereo not given) | 220 |
| COc1c(Oc2ccc3ncc([N+](=O)[O-])n3n2)cnc(CNc2nc(C)nc(C)c2Cl)c1C | 230 to 232 |
| CCc1ncnc(NC(C)c2ccc([Si](C)(C)C)cc2)c1Cl (stereo not given) | 79 to 80 |
| COc1cc2c(cc1NCc1ccccc1)ncc1c(N)nc(-c3cccnc3)cc12 | 251 to 258 |
| NC(=O)Cn1nccc1-c1ccc(Oc2ccc(F)cc2)cc1 | 168 to 169 |
| CCOC(=O)Cc1nc(C)n2c1CN=C(c1ccccc1Cl)c1cc(Cl)ccc1-2 | 143 to 154 |
| CCC(C)C(=O)Nc1c(C(O)(C(F)(F)F)C(F)(F)F)ccc2ccccc12 (stereo not given) | 167 to 168 |
| O=S(=O)(Nc1cccc2cc(-c3ncns3)[nH]c12)c1cccs1 | 232 to 233 |
| COc1ccc(C2CNC(=O)S2)cc1OC (stereo not given) | 167 to 169 |
| Cc1c(F)cccc1Cc1c(-c2ccccc2)c2cc(C=O)cnn2c1C(=O)N1CCN(C(=O)OC(C)(C)C)CC1 | 208 to 209 |
| CCOC(=O)CSc1nnc(-c2ccc3c(c2)CCO3)o1 | 92 to 93 |
| CSc1ccc(-c2cc(=O)nc(N)o2)cc1 | 266 to 267 |
| O=C1CCC(N2C(=O)c3cccc(OCc4cc5ccccc5s4)c3C2=O)C(=O)N1 (stereo not given) | 247 to 249 |
| COC(=O)n1cc(C)c2c(OCc3ccccc3)c(OC)ccc21 | 124 |
| CC(=O)Oc1c2c(c3ccccc3c1OC(C)=O)N(C(C)=O)c1ccccc1S2 | 213 to 214 |
| O=C(Nc1ccc(-n2nc(C3CC3)cc2C2CC2)cc1)c1cccc(F)c1F | 135 to 142 |

From a melting point compilation (Tetko et al.; mined from patent text by program, amines drawn as free bases though some values may be those of a salt)
